# From US6352824B1, “Redox reversible bipyridyl-osmium complex conjugates” (Roche Diagnostics Corporation, priority 1998, dated 2002)
# How the values were obtained:
# [1] = molecular target: T1, HbAlc epitope of hemoglobin in lysed blood (Homo sapiens, UniProt P68871); experiment: Blood denaturing for electrochemical HbAlc immunoassay
# T1 construct: from tissue; host or cells: whole blood, lysed (freeze/thaw) and denatured
# Source text: Blood lysis is necessary to release the hemoglobin followed by denaturing to expose the HbAlc epitope. Lysis can easily be accomplished via surfactants, osmotic effects of dilution with water, and directly by many denaturants. […] Conversely, denaturing the lysed blood with a variety of known denaturants to expose the HbAlc epitope has shown significant suppression of the electrochemical response, inhibiting measurement of an HbAlc dose response.
# Denaturing the sample for antibody recognition without severely fouling the electrode surface is important for successful development of an HbAlc immunoassay. Although LiSCN has been used almost exclusively to show feasibility, it has many limitations that would hinder its use in the disposable. Citric acid, a solid at RT may offer benefits as a denaturant if it could be dried onto a strip followed by a diluent to adjust the pH to neutral. Acid or base blood denaturing followed by a final pH adjustment with a buffered diluent is an area worth further evaluation. One problem that was initially encountered was precipitation in adjusting the pH back to neutral, which can be overcome by using a different buffer or with the addition of surfactants.
# [2] = test system: PAB DE (polyclonal ion-exchange purified HbAlc antibody); experiment: Inhibition of osmium mediator label current with antibody; assay type: binding, sheep
# Protocol: (§1) Polyclonal DE (ion-exchange) purified sheep antibody is used in the TinaQuant HbAlc assay. IS (immunosorbent) antibody is prepared using standard IS purification methodology. Samples of a monoclonal antibody were also obtained for evaluation. Inhibition curves were performed in solution with all mixing occurring in microcentrifuge tubes. Inhibition curves with the three hemoglobin Alc antibodies (PAB IS, PAB DE, and MAB) were generated by fixing OS—DSG—Alc at 5 μM and varying the antibody concentration. […] From the inhibition curves we were able to select reasonable concentrations of antibody for maximum reversal with Alc samples.
# (§2) While these feasibility studies for a HbAlc immunoassay used an enzyme mediated amplification method. (Glucdor/PQQ/glucose was used to regenerate reduced mediator after oxidation at the electrode surface providing a higher diffusion controlled current is given by the cottrell equation), they are considered to be indicative of results attainable with the use of IDA electrodes with bipotentiostatic control in accordance with this invention.
# [3] = Storage stability of osmium mediator-peptide conjugates; conditions: for Stability in solution: stored as solution
# Protocol: Stability of the mediator labels were also evaluated by monitoring % inhibition values over time.
# [4] = test system: PAB IS (polyclonal immunosorbent purified HbAlc antibody); experiment: Inhibition of osmium mediator label current with antibody; assay type: binding, sheep
# Source text: 3. Antibodies for the analytes (HbAlc and HbA0) which react specifically with the N-terminal peptides which have been incorporated into the conjugate are provided by standard methods for producing polyclonal antibodies. In this case, sheep were immunized with carrier proteins to which were conjugated the synthetic peptide sequences for HbAlc and HbA0. Following the appropriate immunization schedule, the sheep were bled, and the antibody isolated from the blood via ion exchange chromatography, followed by immunosorbent purification on a column of the same N-terminal peptide with a different linker.
# as §1
# While these feasibility studies for a HbAlc immunoassay used an enzyme mediated amplification method. […]
# [5] = test system: MAB (monoclonal HbAlc antibody); experiment: as above; assay type: binding
# Protocol: as §1, §2
# Zymed rabbit antibodies = experiment: as above; assay type: binding
# Protocol: (§3) Mediator concentration dose response, inhibition with antibody and reversal with a BSA—Alc polyhaptan were evaluated and summarized in Table 5.
# HbA0 antibody = experiment: Inhibition reversal with A0HB-peptide#1; assay type: binding
# Protocol: as §3
# Sheep B<HBA0> = experiment: Inhibition of osmium mediator label current with antibody; assay type: binding
# Source text: HbAlc assay requires measuring both Al c concentration and total hemoglobin concentration and reports the results as a ratio of these two measurements (%HbAlc). It is advantageous to assay both Alc and total hemoglobin using same principle because ratioing would minimize biases due to environmental effects. Thus antibody has been raised to bind specifically to hemoglobins with unglycosylated N-terminus, i.e. with an epitope sequence of Val-His-Leu-Thr(SEQ ID NO:5). Similarly, nonnative amino acid is added to the sequence to facilitate conjugation. The peptides used for total hemoglobin measurement is termed as A0 peptide. A0 peptides that have been used in the preparation of Os mediator-peptide conjugates include Val-His-Leu-Thr-Cys(SEQ ID NO:6) and Val-His-Leu-Thr-Lys(SEQ ID NO:7).
# glucose oxidase = glucose oxidase (Aspergillus niger, UniProt P13006); conditions: with glucose oxidase; cited from earlier work
# Chain of glucose oxidase (P13006 17-605, species assumed): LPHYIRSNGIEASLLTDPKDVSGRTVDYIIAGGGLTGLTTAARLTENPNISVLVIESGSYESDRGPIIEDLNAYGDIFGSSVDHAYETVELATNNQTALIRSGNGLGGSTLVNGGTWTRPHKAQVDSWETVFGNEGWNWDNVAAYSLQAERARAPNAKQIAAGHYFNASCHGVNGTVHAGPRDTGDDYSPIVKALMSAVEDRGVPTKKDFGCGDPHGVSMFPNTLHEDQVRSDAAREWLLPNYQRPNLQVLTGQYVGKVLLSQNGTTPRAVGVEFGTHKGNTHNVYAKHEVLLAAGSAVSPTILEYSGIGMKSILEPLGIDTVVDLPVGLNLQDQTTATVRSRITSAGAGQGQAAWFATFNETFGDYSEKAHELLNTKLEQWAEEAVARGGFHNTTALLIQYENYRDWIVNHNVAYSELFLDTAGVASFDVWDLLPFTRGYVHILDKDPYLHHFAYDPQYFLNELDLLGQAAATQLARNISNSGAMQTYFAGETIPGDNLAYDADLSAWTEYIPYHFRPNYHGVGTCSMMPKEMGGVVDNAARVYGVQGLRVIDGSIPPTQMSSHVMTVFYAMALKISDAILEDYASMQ
# T1 sequence (P68871 2-147 limits assumed): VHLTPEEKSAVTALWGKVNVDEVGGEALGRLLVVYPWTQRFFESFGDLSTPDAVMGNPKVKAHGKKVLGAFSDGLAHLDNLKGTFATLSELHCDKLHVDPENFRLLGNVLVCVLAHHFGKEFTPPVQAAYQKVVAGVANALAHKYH
compound,measurement,setting,value
Cl [Hydrochloric Acid],Evidence of blood denaturing,[1],Evidence of blood denaturing was seen by all: “solution
N#C[S-].[K+] [KSCN],Blood HbAlc dose response with denatured blood,[1],Initial work did not show a dose response with KSCN
N#C[S-].[Li+] [LiSCN],Blood HbAlc dose response with denatured blood,[1],able to expose the Alc epitope and minimize protein fouling enough to measure an HbAlc dose response
[Na+].[OH-] [NaOH],Evidence of blood denaturing,[1],Evidence of denaturing: “solution turned brown.”
CC(C)CC(NC(=O)C(Cc1cnc[nH]1)NC(=O)C(NCC1(O)OCC(O)C(O)C1O)C(C)C)C(=O)NC(C(=O)NC(CCCCNC(=O)CCCC(=O)NCCc1c[n+]([Os]23([Cl])([n+]4ccccc4-c4cccc[n+]42)[n+]2ccccc2-c2cccc[n+]23)c[nH]1)C(=O)O)C(C)O (stereo not drawn) [Os-DSG-Alc],Inhibition with Antibody PAB DE,[2],PAB DE (≦87%)
same,Stability in lyophilized form,[3]; lyophilized,stable
same,Stability frozen in solution,"[3]; −20° C., 40 and 80 μM",stable
same,Inhibition with Antibody PAB IS,[4],PAB IS (≦91%)
same,Inhibition with Antibody MAB,[5],MAB (≦78%)
CC(C)CC(NC(=O)C(Cc1cnc[nH]1)NC(=O)C(N)C(C)C)C(=O)NC(C(=O)NC(CCCCNC(=O)CCCCCN1C(=O)CC(SCC(=O)NCCc2c[n+]([Os]34([Cl])([n+]5ccccc5-c5cccc[n+]53)[n+]3ccccc3-c3cccc[n+]34)c[nH]2)C1=O)C(=O)O)C(C)O (stereo not drawn) [Os-SATA-A0],Inhibition with Zymed rabbit antibodies,Zymed rabbit antibodies,No
same,Reversal,HbA0 antibody,No
same,Inhibition with Antibody Sheep B<HBA0>,Sheep B<HBA0>,≤ 84%
same,Stability in solution,[3],unstable in solu-
CC(C)CC(NC(=O)C(Cc1cnc[nH]1)NC(=O)C(NCC1(O)OCC(O)C(O)C1O)C(C)C)C(=O)NC(C(=O)NC(CCCCNC(=O)CCCCCN1C(=O)CC(SCC(=O)NCCc2c[n+]([Os]34([Cl])([n+]5ccccc5-c5cccc[n+]53)[n+]3ccccc3-c3cccc[n+]34)c[nH]2)C1=O)C(=O)O)C(C)O (stereo not drawn) [Os-SATA-Alc],Stability in solution,[3],Stability similar
same,Inhibition with Antibody PAB IS,[4],PAB IS (≦44%)
[O-][Cl+3]([O-])([O-])O [Perchloric Acid],Evidence of blood denaturing,[1],Evidence of blood denaturing was seen by all: “solution
O=S(=O)(O)O [Sulfuric Acid],Evidence of blood denaturing,[1],Evidence of blood denaturing was seen by all: “solution
"CCCCCCCCCCCCCC[N+](C)(C)C.[Br-] [TTAB, Tetra decyltrimethyl ammonium bromide]",Evidence of blood denaturing,[1],Evidence of denaturing: “solution turned green”
O=C(O)CC(O)(CC(=O)O)C(=O)O [citric acid],Blood HbAlc dose response with denatured blood,[1],able to expose the Alc epitope and minimize protein fouling enough to measure an HbAlc dose response
same,Evidence of blood denaturing,[1],Evidence of blood denaturing was seen by all: “solution
bis(bipyridyl) imidazolyl chloroosmium,mediation kinetics relative to ferricyanide,glucose oxidase,about 500 times faster
